Source: PMC10011554, “BET inhibitor trotabresib in heavily pretreated patients with solid tumors and diffuse large B-cell lymphomas” (Nature Communications, 2023)
Like-named read-outs stand apart in the source and are kept apart here.

Assays:
[1] = test system: CYP1A2, CYP2B6 and CYP3A4 mRNA; set-up: method as in Investigator's Brochure; conditions: 0.01 to 10 µM, up to 3 days, CYP1A2, CYP2B6, CYP3A4, ref Investigator's Brochure; cited from earlier work
[2] = Prediction of human PK and exposure by allometric scaling; HED calculation
From the text: Protocol CC- 90010- ST-001 Celgene Corporation
Figure 3: CC- 90010- mediated Tumor Growth Inhibition of GBM3 (Glioblastoma Multiforme Patient-derived Xenograft) with and without Temozolomide […]
BID = twice daily; IP = investigational product (CC-90010); PO = by mouth; QD = once daily; SEM = standard […]
Source: Unpublished data from Celgene Corporation.
1.2.2. Nonclinical Pharmacokinetics and Drug Metabolism
In vitro and in vivo studies have been conducted to characterize the absorption, PK, distribution, metabolism and elimination of CC-90010. Robust and reproducible bioanalytical methods for the quantitation of CC-90010 levels were developed and used in PK and toxicokinetic studies.
Human PK parameters and exposures were predicted using allometric scaling.
Pharmacokinetics and oral bioavailability of CC-90010 were evaluated in Sprague-Dawley rats […]
clearance than females. […]
The metabolism of CC-90010 was evaluated in vitro using hepatocytes from various species (mouse, rat, rabbit, dog, monkey, and human). […]
Based on the doses and exposures at which the principal treatment-related effects occurred in the GLP-compliant, 4-week rat and dog studies, both species are considered of similar sensitivity to the toxicities associated with CC-90010 administration. […] This CC-90010 dose was calculated using the approach described in the ICH S9 Guideline entitled “Nonclinical Evaluation for […]

[3] = Plasma pharmacokinetics and food effect, part C; type: in vivo, human; conditions: 45 mg/day; for AUC(0-t) / Cmax / Tmax / AUC(0-inf) / half-life / Vd/F: human, plasma, oral; for Cmax: n = 15, read-out: Cmax, GM (% GCV); for Tmax: n = 15, read-out: Median tmax (range); for AUC(0-inf): n = 15, read-out: AUCinf, GM (% GCV); for half-life: n = 15, read-out: Mean t½ (% CV) (converted); for Vd/F: n = 15, read-out: Vss/F, GM (% GCV)
Description: Response was assessed using Response Evaluation Criteria in Solid Tumors (RECIST) v1.1[54] in patients with solid tumors, International Working Group criteria in patients with DLBCL[55], and Response Assessment in Neuro-Oncology (RANO) criteria[56] in patients with CNS tumors (astrocytoma and glioblastoma). For patients with BCC, the response was assessed using a combination of radiological assessment of target lesions per RECIST v1.1, digital clinical photography assessed per World Health Organization (WHO) criteria, and punch biopsies to confirm CR. PK parameters assessed included Cmax, tmax, AUC, t½, apparent clearance (CL/F), and apparent volume of distribution (Vz/F).
Serial blood samples for PK and pharmacodynamic analyses were collected for each dosing schedule after the first and last doses in cycle 1. Additional blood samples for assessment of the food effect on trotabresib PK in part C were collected during cycle 2. The food effect–evaluable population comprised all patients with adequate PK data to allow calculation of trotabresib AUC from time 0 (day 1) to day 22 from both the fed and fasted treatment periods and who had completed a 4-h post-dose fast during the fasted cycle or consumed the entire high-fat, high-calorie meal during the fed cycle and had received all trotabresib doses during both treatment periods.

OCI-LY-3 (ABC DLBCL) = test system: OCI-LY-3 (ABC DLBCL); set-up: method as in Report CC-90010-Pharm-1018; conditions: OCI-LY-3, Experiment 1, ref Report CC-90010-Pharm-1018; read-out: absolute IC50, proliferation; cited from earlier work
OAT3 = test system: OAT3; set-up: method as in Investigator's Brochure; conditions: OAT3, 30 µM, ref Investigator's Brochure; cited from earlier work
WSU-DLCL2 (DOX-R) = test system: WSU-DLCL2 (DOX-R); set-up: method as in Report CC-90010-Pharm-1018; conditions: Table 2, ref Report CC-90010-Pharm-1018, read-out: absolute IC50, proliferation; cited from earlier work

In the case of `Cn1cc(-c2cc(S(C)(=O)=O)ccc2OCC2CC2)c2ccccc2c1=O` [trotabresib], the “increase in mRNA over vehicle control” value [1] is given as less than 2 fold, the HED ([2]; from dog HNSTD) is given as 2.1 mg base/kg and the HED ([2]; from rat STD10) is given as 3.2 mg base/kg. The “Clss/F, GM (% GCV)” value ([3]; day 4, fasted, n = 15) was 2.60 (25.89) L/h, the “Median tmax (range)” value ([3]; day 4, fasted, n = 15) was 1.50 (1.00–3.00) h and the “Clss/F, GM (% GCV)” value ([3]; day 4, fed, n = 15) was 2.65 (28.52) L/h. It also gave an AUC(0-t) ([3]; cycle 1 day 1, fasted, n = 14, read-out: AUC0–24, GM (% GCV)) of 6650 ng·h/mL, a Cmax ([3]; cycle 1 day 1, fasted) of 560 ng/mL and a Tmax ([3]; cycle 1 day 1, fasted) of 1.55 h. For the same compound, the AUC(0-t) ([3]; day 4, fasted, n = 15, read-out: AUC0–24, GM (% GCV)) was 17300 ng·h/mL, the AUC(0-inf) ([3]; day 4, fasted) was 66500 ng·h/mL and the AUC(0-t) ([3]; day 4, fasted, n = 15, read-out: AUClast, GM (% GCV)) was 65100 ng·h/mL. It also gave a Cmax ([3]; day 4, fasted) of 1120 ng/mL, a half-life ([3]; day 4, fasted) of 69.1 h and a Vd/F ([3]; day 4, fasted) of 235 L. It also gave an AUC(0-t) ([3]; day 4, fed, n = 14, read-out: AUC0–24, GM (% GCV)) of 16800 ng·h/mL, an AUC(0-inf) ([3]; day 4, fed) of 67200 ng·h/mL and an AUC(0-t) ([3]; day 4, fed, n = 15, read-out: AUClast, GM (% GCV)) of 65600 ng·h/mL. It also gave a Cmax ([3]; day 4, fed) of 904 ng/mL, a half-life ([3]; day 4, fed) of 67.8 h and a Tmax ([3]; day 4, fed) of 4 h. The Vd/F ([3]; day 4, fed) was 228 L, the IC50 (OCI-LY-3 (ABC DLBCL)) was 510 nM and the “inhibition of mediated transport” value (OAT3) was 53.6%. For the same compound, the IC50 (WSU-DLCL2 (DOX-R)) was roughly 360 nM.
